In brackets after ≈: the same amount, converted by molar mass. Where two headings read alike, the source gives them in different places.
Tests used:
[1] = test system: Mycobacterium kansasii 235/80; assay: Antimycobacterial MIC micromethod; type: cell-based; settings: read-out: MIC M. kansasii 235/80
Mtb. 7357/1988 = assay: microbe, parasite or virus in culture; type: cell-based; settings: Mycobacterium tuberculosis, read-out: MIC Mtb. 7357/1988
[2] = biological target: T1, mycobacterial isocitrate lyase (ICL1, Rv0467) (Mycobacterium tuberculosis, UniProt P9WKK7); assay: Isocitrate lyase inhibition assay (ICL1); type: biochemical, Mycobacterium tuberculosis H37Rv; settings: 10 μmol/L; read-out: % ICL inhibition at 10 μmol/L (± standard deviation)
T1 construct: His tag (from pET-28b(+)); made in house; host or cells: E. coli BL21(DE3), pET-28b(+) plasmid
T1 sequence (P9WKK7 1-428): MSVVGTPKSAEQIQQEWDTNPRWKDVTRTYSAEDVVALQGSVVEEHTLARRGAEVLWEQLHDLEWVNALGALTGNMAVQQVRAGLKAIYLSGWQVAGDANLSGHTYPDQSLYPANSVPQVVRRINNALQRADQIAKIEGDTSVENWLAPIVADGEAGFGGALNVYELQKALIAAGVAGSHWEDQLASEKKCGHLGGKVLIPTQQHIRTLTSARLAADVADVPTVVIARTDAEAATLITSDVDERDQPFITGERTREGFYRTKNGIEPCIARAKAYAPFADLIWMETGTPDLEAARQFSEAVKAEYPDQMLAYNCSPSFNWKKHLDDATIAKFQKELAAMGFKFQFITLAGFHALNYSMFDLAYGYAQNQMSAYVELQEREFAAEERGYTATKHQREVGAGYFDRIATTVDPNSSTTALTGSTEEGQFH

[3] = test system: Enterococcus sp. J 14365/08; assay: Antibacterial microdilution broth method; type: cell-based; settings: read-out: MIC/IC90 Enterococcus sp. J 14365/08
How it was run: (§1)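 Mueller-Hinton broth pH 7.4; M07-A07-based microdilution; cpds in DMSO, final 500–0.49 […]; inoculum 0.5 McFarland; 35 °C, dark, humid, 24 and 48 h; MIC = ≥90% growth reduction vs control, visual + A540.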

[4] = test system: Escherichia coli CCM 4517; assay: Antibacterial microdilution broth method; type: cell-based; settings: read-out: MIC/IC90 E. coli CCM 4517
How it was run: as §1

[5] = test system: Staphylococcus aureus CCM 4516/08; assay: Antibacterial microdilution broth method; type: cell-based; settings: read-out: MIC/IC90 S. aureus CCM 4516/08
How it was run: as §1

[6] = test system: Staphylococcus epidermidis H 6966/08; assay: Antibacterial microdilution broth method; type: cell-based; settings: read-out: MIC/IC90 S. epidermidis H 6966/08
How it was run: as §1

[7] = test system: methicillin-resistant Staphylococcus aureus H 5996/08 (MRSA); assay: Antibacterial microdilution broth method; type: cell-based; settings: read-out: MIC/IC90 MRSA H 5996/08
How it was run: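 Broth microdilution modified from M07-A07 in Mueller-Hinton broth at pH 7.4, with compounds in DMSO at final concentrations of 500 to 0.49 […] and inoculum matched to 0.5 McFarland. MIC is the lowest concentration giving at least 90% growth reduction versus control, read visually and at 540 nm after 24 and 48 h at 35 °C.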

HepG2 cells = assay: Cytotoxicity evaluation (CellTiter 96 MTS); type: cell-based, human; settings: Homo sapiens, HepG2, 24 h, read-out: IC50 HepG2
How it was run: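 Human HepG2 cells (passages 21–24) seeded 1 × 10^4/well, treated next day with 0.01–20 µM compound (4-(trifluoromethyl)benzoic acid 10–4,000 µM), triplicates, 24 h at 37 °C. MTS reduction read at 490 nm after 2 h; IC50 = concentration cutting viability to 50% of control.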

## O=C(Oc1ccc(Cl)cc1C(=O)Nc1ccc(Cl)c(Cl)c1)c1ccc(C(F)(F)F)cc1 [1e]
[1]; 235/80, 168 h, 7 d
  MIC: 1 µM (≈ 0.489 µg/mL)
[1]; 235/80, 336 h, 14 d
  MIC: 2 µM (≈ 0.977 µg/mL)
[1]; 235/80, 504 h, 21 d
  MIC: 4 µM (≈ 1.95 µg/mL)
Mtb. 7357/1988; 336 h
  MIC: 1 µM (≈ 0.489 µg/mL)
Mtb. 7357/1988; 504 h
  MIC: 2 µM (≈ 0.977 µg/mL)
[2]
  inhibition at 10 µM: 18 ± 1.5%
[3]; SP.J14365/08, 24 h
  MIC: 0.49 µM (≈ 0.239 µg/mL)
[3]; SP.J14365/08, 48 h
  MIC: 3.9 µM (≈ 1.91 µg/mL)
[4]; CCM4517, 24 h
  MIC: > 500 µM
[4]; CCM4517, 48 h
  MIC: > 500 µM
[5]; CCM4516, 24 h
  MIC: 0.49 µM (≈ 0.239 µg/mL)
[5]; CCM4516, 48 h
  MIC: 0.98 µM (≈ 0.479 µg/mL)
[6]; H6966/08, 24 h
  MIC: 0.49 µM (≈ 0.239 µg/mL)
[6]; H6966/08, 48 h
  MIC: 0.98 µM (≈ 0.479 µg/mL)
[7]; 24 h
  MIC: 0.49 µM (≈ 0.239 µg/mL)
[7]; 48 h
  MIC: 0.98 µM (≈ 0.479 µg/mL)
HepG2 cells
  IC50: 3.13 µM

## O=C(Oc1cc(Cl)ccc1C(=O)Nc1ccc(Br)cc1)c1ccc(C(F)(F)F)cc1 [1j]
[1]; 235/80, 168 h, 7 d
  MIC: 1 µM (≈ 0.499 µg/mL)
[1]; 235/80, 336 h, 14 d
  MIC: 4 µM (≈ 1.99 µg/mL)
[1]; 235/80, 504 h, 21 d
  MIC: 4 µM (≈ 1.99 µg/mL)
Mtb. 7357/1988; 336 h
  MIC: 2 µM (≈ 0.997 µg/mL)
Mtb. 7357/1988; 504 h
  MIC: 2 µM (≈ 0.997 µg/mL)
[2]
  inhibition at 10 µM: 14 ± 4%
[3]; SP.J14365/08, 24 h
  MIC: 1.95 µM (≈ 0.972 µg/mL)
[3]; SP.J14365/08, 48 h
  MIC: 7.81 µM (≈ 3.89 µg/mL)
[4]; CCM4517, 24 h
  MIC: 250 µM (≈ 125 µg/mL)
[4]; CCM4517, 48 h
  MIC: > 250 µM
[5]; CCM4516, 24 h
  MIC: 0.49 µM (≈ 0.244 µg/mL)
[5]; CCM4516, 48 h
  MIC: 0.98 µM (≈ 0.489 µg/mL)
[6]; H6966/08, 24 h
  MIC: 0.49 µM (≈ 0.244 µg/mL)
[6]; H6966/08, 48 h
  MIC: 0.98 µM (≈ 0.489 µg/mL)
[7]; 24 h
  MIC: 0.49 µM (≈ 0.244 µg/mL)
[7]; 48 h
  MIC: 0.98 µM (≈ 0.489 µg/mL)
HepG2 cells
  IC50: 4.82 µM

## O=C(Oc1ccc(Cl)cc1C(=O)Nc1ccc(C(F)(F)F)cc1)c1ccc(C(F)(F)F)cc1 [1o, 4-chloro-2-[4-(trifluoromethyl)phenylcarbamoyl]phenyl 4-(trifluoromethyl)benzoate]
[1]; 235/80, 168 h, 7 d
  MIC: 1 µM (≈ 0.488 µg/mL)
[1]; 235/80, 336 h, 14 d
  MIC: 2 µM (≈ 0.976 µg/mL)
[1]; 235/80, 504 h, 21 d
  MIC: 2 µM (≈ 0.976 µg/mL)
Mtb. 7357/1988; 336 h
  MIC: 0.5 µM (≈ 0.244 µg/mL)
Mtb. 7357/1988; 504 h
  MIC: 1 µM (≈ 0.488 µg/mL)
[2]
  inhibition at 10 µM: 13 ± 1.2%
[3]; SP.J14365/08, 24 h
  MIC: 7.81 µM (≈ 3.81 µg/mL)
[3]; SP.J14365/08, 48 h
  MIC: 62.5 µM (≈ 30.5 µg/mL)
[4]; CCM4517, 24 h
  MIC: > 125 µM
[4]; CCM4517, 48 h
  MIC: > 125 µM
[5]; CCM4516, 24 h
  MIC: 3.9 µM (≈ 1.9 µg/mL)
[5]; CCM4516, 48 h
  MIC: 7.81 µM (≈ 3.81 µg/mL)
[6]; H6966/08, 24 h
  MIC: 3.9 µM (≈ 1.9 µg/mL)
[6]; H6966/08, 48 h
  MIC: 7.81 µM (≈ 3.81 µg/mL)
[7]; 24 h
  MIC: 3.9 µM (≈ 1.9 µg/mL)
[7]; 48 h
  MIC: 7.81 µM (≈ 3.81 µg/mL)
HepG2 cells
  IC50: 1.33 µM

Source: publication PMC6270420, “Antibacterial Activity of Salicylanilide 4-(Trifluoromethyl)benzoates” (Molecules, 2013)
